# From patent publication US20150031761A1, “USE OF 5-AMINOLEVULINIC ACID AND DERIVATIVES IN A SOLID FORM FOR PHOTODYNAMIC TREATMENT AND DIAGNOSIS” (Photocure ASA, priority 2007, published 2015)
# Assay: Stress-study at 80° C. of HAL HCl with excipients, impurities by HPLC
# Assay type: physicochemical
# Design: key to level of impurity at relative retention time 0.8: **: An empty entry indicates no detectable levels
# Conditions: 20 hours, relative to a pyrazine standard
# Experimental: In order to get an indication of the stability of HAL in the presence of various excipients, a stress-study at 80° C. was performed. 100 mg HAL HCl+300 mg excipient (Poloxamer 188, Gelucire 44/14, Gelucire mixture (44/14:50/02=[…] w/w) and Miglyol 812 N) was mixed and the result after 20 hours was analysed by HPLC. The level of each impurity was calculated relative to a pyrazine standard.
compound,measurement,value
"CCCCCCOC(=O)CCC(=O)CN.Cl [HAL- HCl, Hexyl 5-aminolevulinate hydrochloride]",level of impurity Pyrazine,1.77%
same,level of impurity at relative retention time 0.8,**
same,level of impurity at relative retention time 0.88,0.46%
same,level of impurity at relative retention time 1.37,0.03%
same,level of impurity at relative retention time 1.91,0.35%
same,level of impurity at relative retention time 2.06,0.16%
